Results: patent US10280198B2, “Therapeutic agents for reducing parathyroid hormone levels” (KAI PHARMACEUTICALS, INC., priority 2009, dated 2019)
“Also recorded” adds a separate entry of the source.

Experiments:
plasma histamine = conditions: rat, in vivo
plasma PTH [1] = assay: Micropore-facilitated transdermal delivery, plasma PTH in rats; conditions: CD hairless rats, derma roller microporation, 10% solution in reservoir, FIG. 11
plasma PTH [2] = assay: 1K1C rat model of acute renal insufficiency, plasma PTH after dosing; type: in vivo; conditions: 1K1C rats
Excerpt: A rat model of acute renal insufficiency (also referred to as the 1K1C model) was developed to simulate the pathology of SHPT associated with end stage renal disease. […] The development of this model allowed for the further characterization of described compounds in the context of a subject with renal dysfunction and elevated PTH. Typical baseline PTH levels in this model averaged ˜450 pg/mL.
The ensuing ischemia/reperfusion (I/R) damage to the remaining kidney results in significant necrosis and renal failure. Serum creatinine levels were elevated for over 24-48 hours following I/R insult (data not shown). […] By 48 hours post-I/R, plasma PTH levels were elevated to ˜450 pg/mL (˜5 fold increase) and in some instances reach as high as ˜1200 pg/mL. This reproducible increase in serum creatinine and PTH provided a robust model that mimics the physiology seen ESRD patients.
The protocol used in this study is as follows. Male Sprague Dawley rats were purchased from Charles River Laboratories (Hollister, Calif.; requested purchase weight 250-275 g). […] Animals were maintained in a temperature-controlled environment with a constant 12 hours light/12 hours dark cycle and free access to food and water at all times. All experimental procedures with animals were performed according to IACUC guidelines.
General anesthesia was induced and maintained by intraperitoneal (IP) injection of sodium pentobarbital (5.2%, 0.4 mL/rat). For animals that received 45 minutes of renal ischemia an additional IP injection of sodium pentobarbital (5.2%, 0.1 mL/rat) was given to maintain the anesthetic plane. Blood sampling for PTH measurements following administration of compounds in normal rats was done under continuous isoflurane anesthesia.
For model development studies, the left femoral vein was cannulated with a PE-10 tube for blood drawing. Both kidneys were exposed via a laparotomy. A right nephrectomy was performed after the right renal pedicle and ureter were ligated with double 2-0 silk sutures. After confirmation of non-bleeding in the right pedicle, the left renal artery was carefully dissected and clamped with a micro vascular clip to induce left renal global ischemia. Renal ischemia was confirmed by observation of a global white-grey color change (blanching). The abdominal incision was temporarily covered with gauze to help maintain the temperature of the abdominal organs. After 45 minutes, the designated period of ischemia, the clip was removed and left renal artery flow was considered restored upon observation of a global restoration of red color. The abdominal incision was closed in layers with 2-0 silk sutures. The animal was then recovered from anesthesia. Physiological parameters including body temperature (36-37.5° C.) and body weight were measured throughout the procedure. Body temperature was monitored and maintained using a heat pad rectal probe feedback system.
Approximately 48 hours after the 1K1C surgery (I/R injury), animals were dosed with various compounds to measure effects on plasma PTH and calcium. In most cases, test articles were administered by IV infusion (infusion time 5, 10 or 30 minutes) although in some studies compounds were administered by IV bolus or subcutaneous (SC) bolus injection. For drug administration and blood draws, animals were anesthetized with isoflurane.

plasma PTH [3] = assay: In vivo PTH lowering after IV bolus in isoflurane-anesthetized normal Sprague Dawley rats; set-up: species or system rat; conditions: for PTH-lowering activity in normal rats: 0.5 mg/kg single IV administration
Summary of the method: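 Peptides were given as a 0.5 mg/kg IV bolus to normal Sprague Dawley rats kept under isoflurane throughout, with saline bolus controls.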

[4] = 3 mg/kg 30-minute IV infusion, FIG. 1

Row | SMILES | fold increase in histamine level relative to pre-dose (plasma histamine) [fold] | histamine response after IV bolus (plasma histamine; iv) | duration of PTH reduction from baseline (plasma PTH [1]) [h] | PTH reduction from baseline 16 hours after dosing (plasma PTH [2]; 1 mg/kg 30-minute IV infusion) [%] | initial fall of PTH levels from baseline (plasma PTH [2]; 1 mg/kg 30-minute IV infusion) | initial drop of PTH, level as % of baseline (plasma PTH [2]; 1 mg/kg SC bolus) [%] | duration of reduced plasma PTH levels (plasma PTH [2]; 1 mg/kg, SC bolus or 30-minute IV infusion (both routes)) | reduced PTH levels from baseline twenty-four hours after dosing (plasma PTH [2]; 1 mg/kg, either route (SC bolus or IV infusion)) | PTH-lowering efficacy and duration of action (plasma PTH [2]; [4]) | mean PTH reduction at the 24 hour time point (plasma PTH [2]; [4]) [%] | duration of decreased PTH (plasma PTH [3]; 0.5 mg/kg IV bolus, normal rats, FIG. 5) | PTH-lowering activity in normal rats (plasma PTH [3]) | % PTH reduction of baseline at 1 hour post IV admin. of 0.5 mg/kg compound (plasma PTH [3]; Table 1, isoflurane-anesthetized normal rats, 0.5 mg/kg IV, 1 hour) [%] | 0.5 mg/kg IV bolus % PTH AUC of saline control (plasma PTH [3]; Table 1, normal rats, PTH at 1, 2, 3, 4 h, AUCcmpd treated/AUCsaline control*100) [%] | 0.5 mg/kg IV bolus % PTH AUC of saline control (plasma PTH [3]; Table 3, normal rats, AUC 1-4 h) [%] | PTH-lowering activity (plasma PTH [2]; 1 mg/kg 30-minute IV infusion, over 24 hours, FIG. 9) | % PTH reduction of baseline at 1 hour post IV administration of 0.5 mg/kg compound (plasma PTH [3]; Table 2, isoflurane-anesthetized normal rats, 0.5 mg/kg IV, 1 hour) [%] | 0.5 mg/kg IV bolus % PTH AUC of saline control (plasma PTH [3]; Table 2, normal rats, AUC 1-4 h) [%]
1 | CC(=O)N[C@H](CS)C(=O)N[C@H](CCCNC(=N)N)C(=O)N[C@H](CCCNC(=N)N)C(=O)N[C@H](CCCNC(=N)N)C(=O)N[C@H](CCCNC(=N)N)C(=O)N[C@H](CCCNC(=N)N)C(=O)N[C@H](CCCNC(=N)N)C(N)=O [SEQ ID NO: 6, Ac-crrrrrr-NH2] | 7 | returned to baseline levels 15 minutes later | ~4 | ~80 | 80-90% | ~40 | over 24 hours | 40-60% | increased efficacy as well as the duration of action | ~40 | at least four hours | below the detection limit or essentially zero | 4 | 0 | 3 | – | – | –
2 | CC(=O)N[C@H](CS)C(=O)N[C@H](C)C(=O)N[C@H](CCCNC(=N)N)C(=O)N[C@H](CCCNC(=N)N)C(=O)N[C@H](CCCNC(=N)N)C(=O)N[C@H](C)C(=O)N[C@H](CCCNC(=N)N)C(N)=O [SEQ ID NO: 26, Ac-carrrar-NH2] | – | – | – | – | – | – | – | – | – | – | – | decreased PTH blood concentration to a non-detectable level for up to 4 hours after dosing; also recorded: very active | – | – | – | activity that is equivalent to Ac-crrrrrr-NH2 | 0 | 1
